Measured values: PubChem BioAssay (NCI)
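Exposure lasted 48 hours, with cells grown in 96-well plates and compounds tested at five concentrations. The concentration for 50% growth inhibition is given as GI50. TGI: total growth inhibition.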

Assays:
Test in all cases: inhibition of tumour cell growth, NCI panel, 48 h
SK-OV-3 ovarian = tested on: SK-OV-3 ovarian
NCI-H23 lung = tested on: NCI-H23 lung
HCC-2998 colon = tested on: HCC-2998 colon
SNB-75 CNS = tested on: SNB-75 CNS
MDA-MB-231 breast = tested on: MDA-MB-231 breast
CCRF-CEM leukemia = tested on: CCRF-CEM leukemia
HOP-62 NSCLC = tested on: HOP-62 NSCLC
EKVX NSCLC = tested on: EKVX NSCLC
CAKI-1 renal = tested on: CAKI-1 renal
DU-145 prostate = tested on: DU-145 prostate
NCI/ADR-RES ovarian = tested on: NCI/ADR-RES ovarian
MDA-MB-468 breast = tested on: MDA-MB-468 breast
MOLT-4 leukemia = tested on: MOLT-4 leukemia
NCI-H460 lung = tested on: NCI-H460 lung
A549 NSCLC = tested on: A549 NSCLC
COLO 205 colon = tested on: COLO 205 colon
PC-3 prostate = tested on: PC-3 prostate
SNB-19 CNS = tested on: SNB-19 CNS
SF-295 CNS = tested on: SF-295 CNS
UACC-62 melanoma = tested on: UACC-62 melanoma
NCI-H522 lung = tested on: NCI-H522 lung
T-47D breast = tested on: T-47D breast
A498 renal = tested on: A498 renal
HCT-116 colon = tested on: HCT-116 colon
UACC-257 melanoma = tested on: UACC-257 melanoma
HT29 colon = tested on: HT29 colon
M14 melanoma = tested on: M14 melanoma
HL-60(TB) leukemia = tested on: HL-60(TB) leukemia
OVCAR-3 ovarian = tested on: OVCAR-3 ovarian

CCCSc1nc(Nc2ccc(S(N)(=O)=O)cc2)c(C#N)c(-c2cc(OC)c(OC)c(OC)c2)n1
GI50 (SK-OV-3 ovarian): 55.1 µM
TGI (SK-OV-3 ovarian): > 100 µM
GI50 (NCI-H23 lung): 15.7 µM
TGI (NCI-H23 lung): > 100 µM
GI50 (HCC-2998 colon): 7.53 µM
TGI (HCC-2998 colon): > 100 µM
GI50 (SNB-75 CNS): 2.09 µM
TGI (SNB-75 CNS): > 100 µM
GI50 (MDA-MB-231 breast): 7.23 µM
TGI (MDA-MB-231 breast): > 100 µM
GI50 (CCRF-CEM leukemia): 3.44 µM
TGI (CCRF-CEM leukemia): > 100 µM
GI50 (HOP-62 NSCLC): 11.1 µM
TGI (HOP-62 NSCLC): > 100 µM
GI50 (EKVX NSCLC): 5.27 µM
TGI (EKVX NSCLC): > 100 µM
GI50 (CAKI-1 renal): 5.76 µM
TGI (CAKI-1 renal): > 100 µM
GI50 (DU-145 prostate): 7.93 µM
TGI (DU-145 prostate): > 100 µM
GI50 (NCI/ADR-RES ovarian): 4.6 µM
TGI (NCI/ADR-RES ovarian): > 100 µM
GI50 (MDA-MB-468 breast): 6.22 µM
TGI (MDA-MB-468 breast): 65.4 µM
GI50 (MOLT-4 leukemia): 2.53 µM
TGI (MOLT-4 leukemia): 8.95 µM
GI50 (NCI-H460 lung): 5.46 µM
TGI (NCI-H460 lung): > 100 µM
GI50 (A549 NSCLC): 4.31 µM
TGI (A549 NSCLC): > 100 µM
GI50 (COLO 205 colon): 8.77 µM
TGI (COLO 205 colon): > 100 µM
GI50 (PC-3 prostate): 2.8 µM
TGI (PC-3 prostate): > 100 µM
GI50 (SNB-19 CNS): 11.7 µM
TGI (SNB-19 CNS): > 100 µM
GI50 (SF-295 CNS): 3.75 µM
TGI (SF-295 CNS): 28.3 µM
GI50 (UACC-62 melanoma): 6.25 µM
TGI (UACC-62 melanoma): > 100 µM
GI50 (NCI-H522 lung): 10.7 µM
TGI (NCI-H522 lung): > 100 µM
GI50 (T-47D breast): 2.76 µM
TGI (T-47D breast): 51 µM
GI50 (A498 renal): > 100 µM
TGI (A498 renal): > 100 µM
GI50 (HCT-116 colon): 4.38 µM
TGI (HCT-116 colon): > 100 µM
GI50 (UACC-257 melanoma): 19.2 µM
TGI (UACC-257 melanoma): > 100 µM
GI50 (HT29 colon): 6.89 µM
TGI (HT29 colon): > 100 µM
GI50 (M14 melanoma): 6.74 µM
TGI (M14 melanoma): > 100 µM
GI50 (HL-60(TB) leukemia): 2.93 µM
TGI (HL-60(TB) leukemia): 33.2 µM
GI50 (OVCAR-3 ovarian): 6.07 µM
TGI (OVCAR-3 ovarian): > 100 µM
